Values after ≈ are worked out from the molar mass of the structure shown. Like-named read-outs stand apart in the source and are kept apart here.
Test system: Candida auris strains
Assay: Candida auris antifungal susceptibility testing (CLSI M27-A3), 38 strains
Format: cell-based
Conditions: for MIC: Candidozyma auris, read-out: MIC

- MIC (24 h, strain 1 VPCI 669/P/12, 24 h): 0.25 µg/mL (≈ 0.229 µM)
- MIC (24 h, strain 2 VCPI 671/P/12, 24 h): 0.25 µg/mL (≈ 0.229 µM)
- MIC (24 h, strain 3 VCPI 674/P/12, 24 h): 0.25 µg/mL (≈ 0.229 µM)
- MIC (24 h, strain 4 VCPI 683/P/12, 24 h): 0.25 µg/mL (≈ 0.229 µM)
- MIC (24 h, strain 5 VCPI 692/P/12, 24 h): 0.25 µg/mL (≈ 0.229 µM)
- MIC (24 h, strain 6 VCPI 712/P/12, 24 h): 0.25 µg/mL (≈ 0.229 µM)
- MIC (24 h, strain 7 VCPI 471/P/13, 24 h): 1 µg/mL (≈ 0.915 µM)
- MIC (24 h, strain 8 VCPI 475/P/13, 24 h): 0.25 µg/mL (≈ 0.229 µM)
- MIC (24 h, strain 9 VCPI 478/P/13, 24 h): 0.25 µg/mL (≈ 0.229 µM)
- MIC (24 h, strain 10 VCPI 479/P/13, 24 h): 0.5 µg/mL (≈ 0.457 µM)
- MIC (24 h, strain 11 VCPI 480/P/13, 24 h): 0.5 µg/mL (≈ 0.457 µM)
- MIC (24 h, strain 12 VCPI 482/P/13, 24 h): 0.5 µg/mL (≈ 0.457 µM)
- MIC (24 h, strain 13 VCPI 483/P/13, 24 h): 0.25 µg/mL (≈ 0.229 µM)
- MIC (24 h, strain 14 VCPI 1130/P/13, 24 h): 0.5 µg/mL (≈ 0.457 µM)
- MIC (24 h, strain 15 VCPI 1132/P/13, 24 h): 0.5 µg/mL (≈ 0.457 µM)
- MIC (24 h, strain 16 VCPI 1133/P/13, 24 h): 16 µg/mL (≈ 14.6 µM)
- MIC (24 h, strain 17 VCPI 105/P/14, 24 h): 0.5 µg/mL (≈ 0.457 µM)
- MIC (24 h, strain 18 VCPI 107/P/14, 24 h): 0.25 µg/mL (≈ 0.229 µM)
- MIC (24 h, strain 19 VCPI 510/P/14, 24 h): 0.5 µg/mL (≈ 0.457 µM)
- MIC (24 h, strain 20 VCPI 511/P/14, 24 h): 0.5 µg/mL (≈ 0.457 µM)
- MIC (24 h, strain 21 VCPI 512/P/14, 24 h): 0.5 µg/mL (≈ 0.457 µM)
- MIC (24 h, strain 22 VCPI 513/P/14, 24 h): 1 µg/mL (≈ 0.915 µM)
- MIC (24 h, strain 23 VCPI 514/P/14, 24 h): 0.5 µg/mL (≈ 0.457 µM)
- MIC (24 h, strain 24 VCPI 250/P/14, 24 h): 0.5 µg/mL (≈ 0.457 µM)
- MIC (24 h, strain 25 VCPI 265/P/14, 24 h): 8 µg/mL (≈ 7.32 µM)
- MIC (24 h, strain 26 VCPI 266/P/14, 24 h): 0.125 µg/mL (≈ 0.114 µM)
- MIC (24 h, strain 27 VCPI 462/P/14, 24 h): 8 µg/mL (≈ 7.32 µM)
- MIC (24 h, strain 28 VCPI 463/P/14, 24 h): 0.5 µg/mL (≈ 0.457 µM)
- MIC (24 h, strain 29 VCPI 467/P/14, 24 h): 0.125 µg/mL (≈ 0.114 µM)
- MIC (24 h, strain 30 VCPI 471a/P/14, 24 h): 4 µg/mL (≈ 3.66 µM)
- MIC (24 h, strain 31 VCPI 478/P/14, 24 h): 1 µg/mL (≈ 0.915 µM)
- MIC (24 h, strain 32 VCPI 518/P/14, 24 h): 0.5 µg/mL (≈ 0.457 µM)
- MIC (24 h, strain 33 VCPI 550/P/14, 24 h): 0.125 µg/mL (≈ 0.114 µM)
- MIC (24 h, strain 34 VCPI 714/P/14, 24 h): 0.5 µg/mL (≈ 0.457 µM)
- MIC (24 h, strain 35 VCPI 717/P/14, 24 h): 0.5 µg/mL (≈ 0.457 µM)
- MIC (24 h, strain 36 VCPI 1060/P/14, 24 h): 0.5 µg/mL (≈ 0.457 µM)
- MIC (24 h, strain 37 VCPI 74/P/15, 24 h): 0.5 µg/mL (≈ 0.457 µM)
- MIC (24 h, strain 38 VCPI 213/P/15, 24 h): 0.5 µg/mL (≈ 0.457 µM)
- MIC (48 h, strain 1 VPCI 669/P/12, 48 h): > 16 µg/mL
- MIC (48 h, strain 2 VCPI 671/P/12, 48 h): > 16 µg/mL
- MIC (48 h, strain 3 VCPI 674/P/12, 48 h): 0.25 µg/mL (≈ 0.229 µM)
- MIC (48 h, strain 4 VCPI 683/P/12, 48 h): > 16 µg/mL
- MIC (48 h, strain 5 VCPI 692/P/12, 48 h): > 16 µg/mL
- MIC (48 h, strain 6 VCPI 712/P/12, 48 h): 0.25 µg/mL (≈ 0.229 µM)
- MIC (48 h, strain 7 VCPI 471/P/13, 48 h): > 16 µg/mL
- MIC (48 h, strain 8 VCPI 475/P/13, 48 h): 0.25 µg/mL (≈ 0.229 µM)
- MIC (48 h, strain 9 VCPI 478/P/13, 48 h): > 16 µg/mL
- MIC (48 h, strain 10 VCPI 479/P/13, 48 h): > 16 µg/mL
- MIC (48 h, strain 11 VCPI 480/P/13, 48 h): > 16 µg/mL
- MIC (48 h, strain 12 VCPI 482/P/13, 48 h): > 16 µg/mL
- MIC (48 h, strain 13 VCPI 483/P/13, 48 h): 0.25 µg/mL (≈ 0.229 µM)
- MIC (48 h, strain 14 VCPI 1130/P/13, 48 h): 0.5 µg/mL (≈ 0.457 µM)
- MIC (48 h, strain 15 VCPI 1132/P/13, 48 h): 0.5 µg/mL (≈ 0.457 µM)
- MIC (48 h, strain 16 VCPI 1133/P/13, 48 h): > 16 µg/mL
- MIC (48 h, strain 17 VCPI 105/P/14, 48 h): 1 µg/mL (≈ 0.915 µM)
- MIC (48 h, strain 18 VCPI 107/P/14, 48 h): 0.5 µg/mL (≈ 0.457 µM)
- MIC (48 h, strain 19 VCPI 510/P/14, 48 h): > 16 µg/mL
- MIC (48 h, strain 20 VCPI 511/P/14, 48 h): > 16 µg/mL
- MIC (48 h, strain 21 VCPI 512/P/14, 48 h): 1 µg/mL (≈ 0.915 µM)
- MIC (48 h, strain 22 VCPI 513/P/14, 48 h): > 16 µg/mL
- MIC (48 h, strain 23 VCPI 514/P/14, 48 h): 1 µg/mL (≈ 0.915 µM)
- MIC (48 h, strain 24 VCPI 250/P/14, 48 h): 0.5 µg/mL (≈ 0.457 µM)
- MIC (48 h, strain 25 VCPI 265/P/14, 48 h): > 16 µg/mL
- MIC (48 h, strain 26 VCPI 266/P/14, 48 h): 0.125 µg/mL (≈ 0.114 µM)
- MIC (48 h, strain 27 VCPI 462/P/14, 48 h): > 16 µg/mL
- MIC (48 h, strain 28 VCPI 463/P/14, 48 h): 0.5 µg/mL (≈ 0.457 µM)
- MIC (48 h, strain 29 VCPI 467/P/14, 48 h): 0.5 µg/mL (≈ 0.457 µM)
- MIC (48 h, strain 30 VCPI 471a/P/14, 48 h): > 16 µg/mL
- MIC (48 h, strain 31 VCPI 478/P/14, 48 h): 2 µg/mL (≈ 1.83 µM)
- MIC (48 h, strain 32 VCPI 518/P/14, 48 h): 16 µg/mL (≈ 14.6 µM)
- MIC (48 h, strain 33 VCPI 550/P/14, 48 h): 0.25 µg/mL (≈ 0.229 µM)
- MIC (48 h, strain 34 VCPI 714/P/14, 48 h): > 16 µg/mL
- MIC (48 h, strain 35 VCPI 717/P/14, 48 h): > 16 µg/mL
- MIC (48 h, strain 36 VCPI 1060/P/14, 48 h): > 16 µg/mL
- MIC (48 h, strain 37 VCPI 74/P/15, 48 h): > 16 µg/mL
- MIC (48 h, strain 38 VCPI 213/P/15, 48 h): > 16 µg/mL
Compound: CC[C@H](C)C[C@H](C)CCCCCCCCC(=O)N[C@H]1C[C@@H](O)[C@@H](NCCN)NC(=O)[C@@H]2[C@@H](O)CCN2C(=O)[C@H]([C@H](O)CCN)NC(=O)[C@H]([C@H](O)[C@@H](O)c2ccc(O)cc2)NC(=O)[C@@H]2C[C@@H](O)CN2C(=O)[C@H]([C@@H](C)O)NC1=O [CAS, caspofungin]
- number of resistant isolates (of 38 C. auris isolates): 4

From US20190307843A1, “SINGLE DOSE METHODS FOR PREVENTING AND TREATING FUNGAL INFECTIONS” (Cidara Therapeutics, Inc., priority 2016, published 2019)
